The structures appear in SMILES notation.

This assay has as its system MOLM-13 acute myeloid leukemia cells. Kind of assay: MOLM-13 quizartinib drug resistance model (cell growth under continual drug treatment). It is filed as cell-based. Here is the method: Since the ITD mutation, found in ˜20% of AML patients, hyperactivates FLT3 signaling and results in poor prognosis and relapse, non-resistant, drug-sensitive cells were treated with a continual dose of 2 nM quizartinib. This drug is a selective type II kinase inhibitor targeting FLT3. […] MOLM-13 acute myeloid leukemia cells harboring heterozygous FLT3 internal tandem duplication (ITD) were obtained from the DSMZ-German Collection of Microorganisms and Cell Cultures (ACC 554). Cells were maintained in RPMI 1640 (Gibco 11875-093) supplemented with 10% FBS and penicillin/streptomycin, and sub-cultured every 2-3 days while maintaining a density range of 2.5 E5-1.5 E6 cells/ml. For generation of the quizartinib-resistant MOLM-13 line, cells were continually treated with 2 nM quizartinib (Selleckchem AC220) or DMSO vehicle control for matched parental control line and drug replenished at each subculturing until emergence of resistant clones at 5 weeks duration in culture. Genomic DNA (Zymo Research Quick-DNA Microprep w\Plus Kit, D3020) or total RNA (Qiagen RNeasy Plus Kit, 74034) was isolated from quizartinib-resistant and matched parental MOLM-13 cells at time of FACS sorting to generate bulk sequencing control libraries for comparison to single cell datasets and for quantitative PCR template.

Regarding `CC(C)(C)c1cc(NC(=O)Nc2ccc(-c3cn4c(n3)sc3cc(OCCN5CCOCC5)ccc34)cc2)no1` [quizartinib], for the setting “continual 2 nM quizartinib, drug replenished at each subculturing”, the “emergence of resistant clones, duration in culture” value is reported as 5 weeks. For the same molecule, the “growth inhibition/apoptosis of drug-sensitive MOLM-13 cells” value (continual dose of 2 nM quizartinib, FLT3 ITD MOLM-13 cells, before resistance emerged) was “marked growth inhibition/apoptosis”.

The values above are taken from patent publication US20250297243A1, “SINGLE CELL MULTIOMICS” (BioSkryb Genomics, Inc., priority 2022, published 2025).
